Test results as given in patent US20260274886A1, “CRYSTALLINE FORMS OF A FARNESOID X RECEPTOR AGONIST” (ALFASIGMA S.P.A., priority 2023, published 2026).
Like-named read-outs stand apart in the source and are kept apart here.

Legend:
[1] = Form change on drying under vacuum (XRPD wet vs dry, thermal cycling experiments); format: physicochemical; settings: dried at ambient temperature under vacuum for 2 h
Experimental: Additional solvent is added if necessary. Mixture is thermally cycled between 4° and 5° C. with 0.1° C./min cooling and heating rates and 1 h holds at 40 and 5° C. After 21 h cycling, additional solvent is added if thick slurry is observed and anti-solvent (heptane) is added if clear solution is observed. After a further 26 h thermal cycling, observations are recorded at 5° C. Material is isolated by centrifugation if necessary and analyzed by XRPD. […] XRPD analysis is repeated.

[2] = Dynamic vapour sorption (DVS) analysis; format: physicochemical
Experimental: Approximately 10-20 mg of sample is placed into a mesh vapour sorption balance pan and loaded into a DVS Advantage dynamic vapour sorption balance by Surface Measurement Systems. The sample is subjected to a ramping profile from 40-90% relative humidity (RH) at 10% increments, maintaining the sample at each step until a stable weight has been achieved (dm/dt 0.004%, minimum step length 30 minutes, maximum step length 500 minutes) at 25° C. After completion of the sorption cycle, the sample is dried using the same procedure to 0% RH and then a second sorption cycle back to 40% RH. Two cycles are performed. The weight change during the sorption/desorption cycles are plotted, allowing for the hygroscopic nature of the sample to be determined. XRPD analysis is then carried out on any solid retained.
A dynamic vapour sorption analysis of Crystalline Form 1 is in FIG. 4. […] There is a loss of 1.9 wt. % on the first desorption cycle. There is an uptake of 1.1 wt. % (0.3 equivalents water) on the second sorption between 0 and 90% RH, followed by a loss of about 1.25 wt. % on desportion. There is a loss of 1.2 wt. % difference from the input to the end of the experiment. […] Crystalline Form 1 remains as the bulk form.

[3] = DVS, 25° C., between 0 and 90% RH

| Compound | form after drying [1] | uptake on the second sorption [2, 3] | uptake on the second sorption, equivalents water [2, 3] | loss on the first desorption cycle ([2]; DVS, 25° C., first desorption cycle) | mass change on the first sorption cycle ([2]; DVS, 25° C., first sorption cycle) | loss on desorption after second sorption ([2]; DVS, 25° C., second desorption) | loss, difference from the input to the end of the experiment ([2]; DVS, 25° C., two cycles) | XRPD post-DVS ([2]; solid retained after DVS) | HPLC-CAD Purity (% w/w) (7 day stability, 40° C./75% RH) | HPLC-CAD Purity (% w/w) (7 day stability, 80° C.) | HPLC-CAD Purity (% w/w) (7 day stability, Ambient Light) | XRPD (7 day stability, Ambient Light) | stability under stressed conditions (summary statement referring to DVS and storage data in Example 6) |
| --- | --- | --- | --- | --- | --- | --- | --- | --- | --- | --- | --- | --- | --- |
| CC[C@H]1[C@@H](O)[C@@H]2[C@H]([C@@H](O)C[C@]3(C)[C@@H]([C@H](C)CCC(=O)O)CC[C@@H]23)[C@@]2(C)CC[C@@H](O)C[C@@H]12 [Crystalline Form 2, 3α,7α,11β-trihydroxy-6α-ethyl-5β-cholan-24-oic acid] | converts to Form 3 | – | – | – | – | – | – | – | – | – | – | – | – |
| CC[C@H]1[C@@H](O)[C@@H]2[C@H]([C@@H](O)C[C@]3(C)[C@@H]([C@H](C)CCC(=O)O)CC[C@@H]23)[C@@]2(C)CC[C@@H](O)C[C@@H]12 [Crystalline Form 1, 3α,7α,11β-trihydroxy-6α-ethyl-5β-cholan-24-oic acid] | – | 1.1 wt. % | 0.3 equivalents water | 1.9 wt. % | initial mass loss on the first sorption cycle before a slight uptake is observed | about 1.25 wt. % | 1.2 wt. % | slight loss of crystallinity | 97.1 % w/w | 96.4 % w/w | 97.5 % w/w | 1^ | stable under stressed conditions |
